Measured values reported in US20210186905A1, “ENHANCING T-CELL FUNCTION AND TREATING A T-CELL DYSFUNCTIONAL DISORDER WITH A COMBINATION OF AN LSD INHIBITOR AND A PD-1 BINDING ANTAGONIST” (EpiAxis Therapeutic Pty Ltd, priority 2017, published 2021).
Where a name gives a salt, the structure may show the parent alone.

How the values were obtained:
[1] = test system: T-cell activation and exhaustion genes; assay: Nanostring transcript analysis of CD8+ T-cells from 4T1 metastatic mouse model; type: in vivo
Experimental: FIG. 5 is a graphical representation showing that dual epigenetic-immunotherapy re-educates and re-programs the T-cell repertoire. A. Cells stimulated with PMA/ionomycin for 4 hours in the presence of Brefeldin A. Cells were surfaced stained with CD45, CD3, CD4, CD8, CD44, CD62L (for naïve, effector and central memory), CD25 and FoxP3 (for Tregs) and analyzed via Flow cytometry. A Mann-Whitney non-parametric t-test was used to compare control vs other groups (*p<0.05, n=2-5). […] Representative images for each dataset are shown. TNFI values for EOMES, TBET and Ki67 measured using Image) to select the nucleus minus background. Graphs represent the % change of expression relative to control group for CD8^+ T-cells. (n>20 individual cells, Group A=Control, Group C: PD1 (10 mg/kg), Group D: Phenelzine (40 mg/kg), Group F: PD1+Phenelzine). C. Cells stimulated with PMA/ionomycin for 4 hours in the presence of Brefeldin A. Cell were surfaced stained with CD45, CD3, CD4, CD8 and intracellular staining of IFN-γ, IL-2 and TNF-α in the presence of Brefeldin A and analyzed via flow cytometry. A Mann-Whitney non-parametric t-test was used to compare control vs other groups (*p<0.05, **p<0.008; n=2-5). […] Representative images for each dataset are shown. TNFI values for TNFα and IFNγ measured using ImageJ to select the nucleus minus background. […]

[2] = test system: MDA-MB-231 breast cancer cell line
Experimental: (§1) A. MDA-MB-231 breast cancer cell line was treated with increasing doses of phenelzine sulfate (phenelzine). Immunofluorescence microscopy was performed on cells fixed and probed with primary anti-LSD1s111p and anti-H3k4me2 and DAPI. Representative images for each dataset are shown. Graph represents the TNFI values for LSD1p and H3k4me2 measured using ImageJ to select the nucleus minus background (n>20 individual cells). B. The effect of phenelzine sulfate on cell proliferation of MDA-MB-231 cells was analyzed using the WST-1 proliferation assay

LSD1 = LSD1 (Homo sapiens, UniProt O60341); details: MDA-MB-231; TNFI of LSD1p and H3k4me2
Experimental: as §1

[3] = test system: F4/80+ macrophages (CD38, CD206, LSD1p); assay: Immunofluorescence assay of TME macrophage populations (M1/M2 profiles); type: in vivo, mouse
Experimental: FIG. 4 is a graphical representation showing that dual epigenetic-immunotherapy re-educates and re-programs innate macrophage repertoire. A. Immunofluorescence microscopy was performed on F4/80+MØ cells fixed and probed with a M1 panel consisting of anti-CD38 and ? odies and DAPI. […] B. Immunofluorescence microscopy was performed on F4/80+MØ cells fixed and probed with a M2 panel consisting of anti-CD206 and anti LSD1p antibodies and DAPI.
The effect of these treatment modalities was also investigated on TME macrophage populations by immunofluorescence assay (IFA). In particular, the M1 (CD38 expression) and M2 profiles (CD206 expression) were examined, along with LSD1p expression.
(§2) A total of 2×10^5 cells were injected per mouse into mammary gland in 50 μL of phosphate buffered saline (PBS). Treatments were started on mice after 15 days post-inoculation of 4T1 cells. […] Tumors were measured using calipers and the tumor volumes (mm3) were calculated using the formula (length×width2)/2. ? arvested cells from primary tumors where then cytospun ? -treated with poly-1-lysine and fixed then stored in PBS for IFA Microscopy Analysis. […] Digital images were analysed using ImageJ software (ImageJ, NIH, Bethesda, Md., USA) to determine the either the Total Nuclear Fluorescent Intensity (TNFI), the Total Cytoplasmic Fluorescent Intensity (TCFI) or total Fluorescent Intensity (TFI).

EOMES, TBET and Ki67 = assay: Immunofluorescence of T-cell exhaustion signature in CD8+ T-cells isolated from TME; type: in vivo, mouse; details: % change relative to control
Experimental: FIG. 5 is a graphical representation showing that dual epigenetic-immunotherapy re-educates and re-programs the T-cell repertoire. A. Cells stimulated with PMA/ionomycin for 4 hours in the presence of Brefeldin A. Cells were surfaced stained with CD45, CD3, CD4, CD8, CD44, CD62L (for naïve, effector and central memory), CD25 and FoxP3 (for Tregs) and analyzed via Flow cytometry. A Mann-Whitney non-parametric t-test was used to compare control vs other groups (*p<0.05, n=2-5). […] Representative images for each dataset are shown. TNFI values for EOMES, TBET and Ki67 measured using Image) to select the nucleus minus background. Graphs represent the % change of expression relative to control group for CD8^+ T-cells. (n>20 individual cells, Group A=Control, Group C: PD1 (10 mg/kg), Group D: Phenelzine (40 mg/kg), Group F: PD1+Phenelzine). C. Cells stimulated with PMA/ionomycin for 4 hours in the presence of Brefeldin A. Cell were surfaced stained with CD45, CD3, CD4, CD8 and intracellular staining of IFN-γ, IL-2 and TNF-α in the presence of Brefeldin A and analyzed via flow cytometry. A Mann-Whitney non-parametric t-test was used to compare control vs other groups (*p<0.05, **p<0.008; n=2-5). […] Representative images for each dataset are shown. TNFI values for TNFα and IFNγ measured using ImageJ to select the nucleus minus background. Graphs represent the % change of expression relative to control group for CD8^+ T-cells. […]
as §2, with “(PBS).” for “(PBS). Treatments were started on mice after 15 days post-inoculation of 4T1 cells.”

nuclear axis of LSD1, as measured by H3k4me2 de-methylation (LSD1): inhibited
SMILES: NNCCc1ccccc1 (racemic) [phenelzine sulfate, (±)-2-phenylethylhydrazine]
exhaustive signature genes such as CTLA4 and LAG3 [1]: inhibited | proliferation of MDA-MB-231, as measured by the WST-1 assay [2]: inhibiting the proliferation | M1 phenotype (CD38 expression and LSD1p inhibition) [3]: most strongly enhanced | tumor associated M2 profile (CD206 and LSD1p expression) [3]: re-programmed and inhibited | EOMES expression (EOMES, TBET and Ki67): strongly inhibit | Ki67 expression (EOMES, TBET and Ki67): more strongly | TBET expression (EOMES, TBET and Ki67): more strongly
